In brackets after ≈: the same amount, converted by molar mass. Each block holds one molecule with its values, some of them ahead of it.
Experiments:
[1] = test system: LS-174T human colon carcinoma; assay: Cytotoxicity assay of immunoconjugates, 3H-leucine uptake, 48 hours; type: cell-based; settings: LS174T, LS 174T cells, 48 hours incubation, concentrations in terms of drug contained in conjugate
Excerpt: Table III uses several abbreviations which are defined as follows. The terms D612, COL-1, CC83, and CC49 refer to specific murine monoclonal antibodies which are described in detail in the Antibody section of the Detailed Description. […] "CR#" is an abbreviation for conjugation ratio. "MIR" refers to the molar input ratio of the linker-drug relative to the antibody.

[2] = Cardiotoxicity / toxicity of free drug versus trityl prodrug (no method described); settings: for use in oncolytic therapy
CCRF-CEM cells = assay: In vitro antitumor activity / growth inhibition of CCRF-CEM cells, 72 hours; type: cell-based; settings: Homo sapiens, serum-free UltraCHO media, read-out: IC50 (50% inhibition of growth)
Method: The in vitro data were obtained using CCRF-CEM cells, a human leukemia cell line. Foley et al., Cancer, 18:522 (1965). These cells were grown in albumin-free UltraCHO® media (BioWhittaker, Inc., Walkersville, Md.) using standard techniques. See, e.g., G. B. Grindey, et al., Journal of Molecular Pharmacology, 16:601 (1979). Dose-response curves were generated for various compounds to determine the concentration required for 50% inhibition of growth (IC50). Cluster plates were prepared in duplicate with the compound at various concentrations. Test compounds were dissolved initially in DMSO at a concentration of 4 mg/ml and further diluted with solvent to the desired concentration. Cells in serum-free UltraCHO media were added to the well at a final concentration of 4.8×10^4 cells/well in a total volume of 2.0 ml. After 72 hours of incubation (95% air, 5% CO2), cell numbers were determined on a ZBI Coulter counter. Cell number for indicated controls at the end of incubation was usually (4-6)×10^5 cells/well. Cell viability was also measured by staining with 3-[4,5-dimethylthiazol-2-yl]-2,5-diphenyl-tetrazolium bromide (MTT) using standard techniques. R. I. Freshhey, Culture of Animal Cells: A Manual of Basic Technique, 253-354 (2d ed. 1987).
Column 1 refers to the example number of the compound tested; Column 2 depicts the in vitro cytoxicity against CCRF-CEM cells by relating the concentration of the test compound required for 50% inhibition of growth (IC50) of the cells in the well.

[3] = test system: HC-1 human colon carcinoma xenograft; assay: Antitumor activity against HC-1 human colon carcinoma xenografts in nude mice; type: in vivo, human tumor in CD1 Nu/Nu mice; settings: for Activity (overall): overall activity over all doses
Excerpt: One of the tumor models used for showing the anti-neoplastic activity of the prodrugs of this invention were the human colon xenografts, HC-1 human colon xenograft. This tumor model was obtained from the Division of Cancer Treatment, National Cancer Institute, Tumor Bank.
First passage tumors were stored in liquid nitrogen, using standard techniques. The transplanted tumor was reestablished from the Tumor Bank every six months or as needed. The tumor was maintained by serial passage twice weekly in nude mice.
In the procedures utilized here, the tumor was removed from passage animals and minced into 1- to 3-mm cubic fragments using sterile techniques. Tumor pieces were checked for sterility using both Antibiotic Medium 1 and Brain Heart Infusion (Difco, Detroit, Mich.). The xenograft tumor pieces were implanted into the recipient CD1 Nu/Nu mice subcutaneously in an axillary site by trochar.
Drug therapy on the appropriate schedule was initiated 14 days after tumor implantation for the mice bearing the xenograft tumors. The compound being tested was mixed with 2.5% Emulphor EL620 from GAP Corporation (1:40 dilution in 0.9% saline). The total dosage volume for each administration was 0.5 ml. All animals were weighed at the beginning and end of administration of the subject compounds. Food and water were provided ad libitum.
Each control group and each dosage level of the treated groups consisted of 9 or 10 mice selected at random from the pool of implanted animals. The formulations were administered intraperitoneally. Compounds were dosed on days 1, 4, 7, and 10 for all prodrugs except for MMeT which was dosed on days 1,5, and 9.
The tumor was measured five days after treatment ended with two dimensional measurements (width and length) of the tumor taken using digital electronic calipers interfaced to a microcomputer. J. P. Worzalla, et al., Investigational New Drugs, 8:241-251 (1990). Tumor weights were calculated from these measurements using the following formula: [formula] At least one control group of an equal number of mice was treated with the same volume of 2.5% Emulphor only. The percent inhibition is determined by subtracting the ratio of the mean tumor size of the test group relative to the control group from one and multiplying the result by 100.
The results of several experiments in mice bearing the HC-1 human colon carcinoma when the Formula III compounds were administered orally are provided in Table V. Row 1 describes the particular compound being tested. Row 15 describes the overall activity of the compound. Column 1 gives the dosage level of the compound of Formula III and ADDFA in mg/kg. The second column gives the percent inhibition of tumor growth by the ADDFA given systemically. Colums 3 through 7 gives the percent inhibition of tumor growth of the compounds of Formula III.

[4] = Release studies: rate of free drug release from isopropylamide linker-drug by NMR; type: physicochemical
Method: The isopropylamide linker-drug (2 mg) was dissolved in 0.3 ml of dry deuterated methanol (CD3 OD). A solution of potassium phosphate buffer in deuteratured water (D2 O) (0.2 ml) of appropriate pH was added. The resulting solution was transferred to an NMR tube and heated at 37° C. and NMR spectra were recorded periodically. The rate of appearance of free drug and the rate of disappearance of the starting material were calculated from the peak integrals at: […]
NMR spectra (CD3 OD/0.1M KD2 PO4)

[5] = pH 5.40, CD3OD/0.1M KD2PO4, 37° C.
[6] = pH 6.40, CD3OD/0.1M KD2PO4, 37° C.
[7] = pH 7.40, CD3OD/0.1M KD2PO4, 37° C., extrapolated

SMILES: Nc1nc(N)c2ncn([C@@H]3O[C@H](CO)[C@@H](O)C3(F)F)c2n1 [ADDFA, 2-Amino-2'-deoxy-2',2'-difluoroadenosine, reference compound]
- IC50 [1]: 0.26 µg/mL (≈ 0.86 µM)
- cardiotoxicity [2]: too much cardiotoxicity
- IC50 (CCRF-CEM cells): 0.024 µg/mL (≈ 0.0794 µM)
- Percent Inhibition ([3]; 17.5 mg/kg): 100%
- Percent Inhibition ([3]; 20.0 mg/kg): 100%
- Percent Inhibition ([3]; 25.0 mg/kg): 100%
- Percent Inhibition ([3]; 32.5 mg/kg): 100%
- Percent Inhibition ([3]; 35.0 mg/kg): 100%
- Percent Inhibition ([3]; 40.0 mg/kg): 100%
- Percent Inhibition ([3]; 50.0 mg/kg): 100%
- Percent Inhibition ([3]; 65.0 mg/kg): 100%
- Percent Inhibition ([3]; 70.0 mg/kg): 100%
- Percent Inhibition ([3]; 80.0 mg/kg): 100%
- Percent Inhibition ([3]; 100.0 mg/kg): 100%
- Percent Inhibition ([3]; 130.0 mg/kg): 100%
- Activity (overall) [3]: +++ (95-100% Inhibition)

SMILES: COc1ccc(C(Nc2nc(N)nc3c2ncn3[C@@H]2O[C@H](CO)[C@@H](O)C2(F)F)(c2ccc(OC)cc2)c2ccc(C(=O)NC(C)C)cc2)cc1 [DMT, N-Isopropyl-4-[bis-(4-methoxyphenyl)-6-N-[2-amino-9-(2'-deoxy-2',2'-difluoro-β-ribofuranosyl)purinyl]methyl]benzamide]
- t1/2 [4, 5]: 3.71 h
- t1/2 [4, 6]: 14.8 h
- t1/2 ([4]; pH 7.40, CD3OD/0.1M KD2PO4, 37° C.): 146.3 h
- IC50 (CCRF-CEM cells): 0.078 µg/mL (≈ 0.113 µM)
- Percent Inhibition ([3]; 25.0 mg/kg): 97%
- Percent Inhibition ([3]; 50.0 mg/kg): 99%
- Percent Inhibition ([3]; 100.0 mg/kg): 99%
- Activity (overall) [3]: +++ (95-100% Inhibition)

SMILES: COc1ccc(C(Nc2nc(N)nc3c2ncn3[C@@H]2O[C@H](CO)[C@@H](O)C2(F)F)(c2ccccc2)c2ccc(C(=O)NC(C)C)cc2)cc1 (stereo partly shown) [MMT]
- t1/2 [4, 5]: 16.7 h
- t1/2 ([4]; pH 6.40, CD3OD/0.1M KD2PO4, 37° C., extrapolated): 547 h
- t1/2 [4, 7]: 800 h
- IC50 (CCRF-CEM cells): 0.1 µg/mL (≈ 0.152 µM)
- Percent Inhibition ([3]; 32.5 mg/kg): 95%
- Percent Inhibition ([3]; 65.0 mg/kg): 96%
- Percent Inhibition ([3]; 130.0 mg/kg): 93%
- Activity (overall) [3]: +++ (95-100% Inhibition)

More lines, main results first:

- IC50 (CCRF-CEM cells): 0.1 µg/mL (≈ 0.148 µM)
SMILES: COc1ccc(C(Nc2nc(N)nc3c2ncn3[C@@H]2O[C@H](CO)[C@@H](O)C2(F)F)(c2ccc(C)cc2)c2ccc(C(=O)NC(C)C)cc2)cc1 (stereo partly drawn) [MMeT, N-Isopropyl-4-[4-methoxyphenyl-4'methylphenyl-6-N-[2-amino-9-(2'-deoxy-2',2'-difluoro-β-ribofuranosyl)purinyl]methyl]benzamide]
- Percent Inhibition ([3]; 20.0 mg/kg): 95%
- Percent Inhibition ([3]; 40.0 mg/kg): 98%
- Percent Inhibition ([3]; 80.0 mg/kg): 98%
- Activity (overall) [3]: +++ (95-100% Inhibition)

- IC50 (CCRF-CEM cells): 0.8 µg/mL (≈ 1.24 µM)
SMILES: Cc1ccc(C(Nc2nc(N)nc3c2ncn3[C@@H]2O[C@H](CO)[C@@H](O)C2(F)F)(c2ccccc2)c2ccc(C(=O)NC(C)C)cc2)cc1 (stereo partly shown) [MeT]
- Percent Inhibition ([3]; 20.0 mg/kg): 41%
- Percent Inhibition ([3]; 40.0 mg/kg): 58%
- Percent Inhibition ([3]; 80.0 mg/kg): 92%
- Activity (overall) [3]: ++ (80-94% Inhibition)

- IC50 (CCRF-CEM cells): 1.7 µg/mL (≈ 2.7 µM)
SMILES: CC(C)NC(=O)c1ccc(C(Nc2nc(N)nc3c2ncn3[C@@H]2O[C@H](CO)[C@@H](O)C2(F)F)(c2ccccc2)c2ccccc2)cc1 [T, N-Isopropyl-4-[bis-phenyl-6-N-[2-amino-9-(2'-deoxy-2',2'-difluoro-β-ribofuranosyl)purinyl]methyl]benzamide]
- fragmentation under pH conditions used ([4]; pH 5.40, 6.40, 7.40, up to t = 800): no fragmentation
- Percent Inhibition ([3]; 17.5 mg/kg): 14%
- Percent Inhibition ([3]; 35.0 mg/kg): 28%
- Percent Inhibition ([3]; 70.0 mg/kg): 04%
- Activity (overall) [3]: - (<60% Inhibition)

- t1/2 [4, 5]: 2.35 h
- t1/2 [4, 6]: 23.3 h
- t1/2 [4, 7]: 133.3 h
- IC50 (CCRF-CEM cells): 0.084 µg/mL (≈ 0.122 µM)
SMILES: COc1ccc(C(Nc2nc(N)nc3c2ncn3[C@@H]2O[C@H](CO)[C@@H](O)C2(F)F)(c2ccc(OC)cc2)c2cccc(C(=O)NC(C)C)c2)cc1 [mDMT, N-Isopropyl-3-[bis-(4-methoxyphenyl)-6-N-[2-amino-9-(2'-deoxy-2',2'-difluoro-β-ribofuranosyl)purinyl]methyl]benzamide]

Reference: patent publication US5612474A, “Acid labile immunoconjugate intermediates” (Eli Lilly and Company, priority 1994, dated 1997)
